Data reported in ChEMBL document CHEMBL5143600, “Discovery and optimization of betulinic acid derivatives as novel potent CD73 inhibitors” (Bioorg Med Chem, 2022).
Activity calls are given as the source filed them. The rule behind the calls is not given here.

How the values were obtained:
MIA PaCa-2 = experiment: Cytotoxicity against human MIA PaCa-2 cells assessed as inhibition of cell growth incubated for 72 hrs by CCK-8 assay; assay type: functional, cell-based; details: MIA PaCa-2, 72 h
MDA-MB-231 = experiment: Cytotoxicity against human MDA-MB-231 cells assessed as inhibition of cell growth incubated for 72 hrs by CCK-8 assay; assay type: functional, cell-based; details: MDA-MB-231, 72 h
5'-nucleotidase [1] = target: T1, 5'-nucleotidase (Mus musculus, UniProt Q61503); experiment: (§1) Inhibition of mouse CD73 assessed as reduction in inorganic phosphate release upon substrate hydrolysis using AMP[…] as substrate incubated for 1 hr followed by substrate addition and measured after 2 hrs by malachite green reagent based colorimetric assay
T1 sequence (Q61503 whole entry): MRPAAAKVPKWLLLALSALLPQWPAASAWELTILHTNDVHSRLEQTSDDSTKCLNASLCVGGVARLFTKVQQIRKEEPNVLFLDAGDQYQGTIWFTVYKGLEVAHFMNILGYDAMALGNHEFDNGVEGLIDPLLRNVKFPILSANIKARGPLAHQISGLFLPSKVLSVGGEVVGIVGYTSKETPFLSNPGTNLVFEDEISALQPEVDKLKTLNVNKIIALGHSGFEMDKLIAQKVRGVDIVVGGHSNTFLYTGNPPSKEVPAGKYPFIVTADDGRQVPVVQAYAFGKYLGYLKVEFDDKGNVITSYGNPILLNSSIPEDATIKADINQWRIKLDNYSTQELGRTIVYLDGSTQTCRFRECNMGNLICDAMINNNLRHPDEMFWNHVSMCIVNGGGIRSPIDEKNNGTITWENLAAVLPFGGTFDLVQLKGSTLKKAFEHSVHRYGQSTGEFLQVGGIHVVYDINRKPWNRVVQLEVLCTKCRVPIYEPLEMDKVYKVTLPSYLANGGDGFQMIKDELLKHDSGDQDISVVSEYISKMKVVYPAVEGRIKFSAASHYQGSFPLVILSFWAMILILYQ

[2] = Selectivity index, ratio of IC50 for inhibition of mose CD73 to IC50 for inhibition of human CD73
5'-nucleotidase [3] = target: T2, 5'-nucleotidase (Homo sapiens, UniProt P21589); experiment: as §1, with “Potency index, ratio” for “Inhibition”, “betulinic acid IC50 to test compound IC50 for inhibition of human” for “mouse”; details: time 3.0 hrs
5'-nucleotidase [4] = target: T2, 5'-nucleotidase; experiment: Inhibition of human CD73 assessed as reduction in inorganic phosphate release upon substrate hydrolysis using AMP[…] as substrate incubated for 1 hr followed by substrate addition and measured after 2 hrs by malachite green reagent based colorimetric assay
CD4+ve Th = experiment: Induction of anti-CD3/CD28 antibodies-stimulated CD4-positive Th cell activation in C57BL/6J mouse assessed as reversal of AMP/EHNA-inhibited IFN-gamma production at 10 uM preincubated for 15 mins followed by AMP/EHNA addition and measured after 96 hrs by ELISA; assay type: functional, cell-based; details: time 5775.0 min

T2 sequence (P21589 whole entry): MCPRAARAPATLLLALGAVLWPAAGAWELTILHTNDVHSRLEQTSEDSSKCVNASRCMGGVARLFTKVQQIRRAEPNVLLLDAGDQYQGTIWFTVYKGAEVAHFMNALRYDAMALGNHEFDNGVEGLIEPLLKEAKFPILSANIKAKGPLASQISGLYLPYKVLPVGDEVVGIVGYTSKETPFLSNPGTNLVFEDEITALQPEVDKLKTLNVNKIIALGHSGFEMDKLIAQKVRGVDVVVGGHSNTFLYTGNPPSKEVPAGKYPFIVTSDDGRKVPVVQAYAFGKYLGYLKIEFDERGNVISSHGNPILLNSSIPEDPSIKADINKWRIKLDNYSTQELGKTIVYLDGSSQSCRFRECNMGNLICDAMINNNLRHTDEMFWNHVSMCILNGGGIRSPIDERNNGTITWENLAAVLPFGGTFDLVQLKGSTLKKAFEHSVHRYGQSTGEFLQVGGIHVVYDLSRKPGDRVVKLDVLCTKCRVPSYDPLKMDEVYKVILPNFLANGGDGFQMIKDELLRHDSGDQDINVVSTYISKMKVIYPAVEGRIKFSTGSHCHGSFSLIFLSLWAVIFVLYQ

| Structure (SMILES) | IC50 (5'-nucleotidase [1]) | IC50 (5'-nucleotidase [4]) | also measured |
| --- | --- | --- | --- |
| Nc1ccn([C@@H]2O[C@H](CO)[C@@H](O)C2(F)F)c(=O)n1 [GEMCITABINE] | – | – | IC50 (MIA PaCa-2): 0.36 µM; IC50 (MDA-MB-231): 2.22 µM |
| C=C(C)[C@@H]1CC[C@]2(C(=O)O)CC[C@]3(C)[C@H](CC[C@@H]4[C@@]5(C)CC[C@H](OC(=O)N6CCCCC6)C(C)(C)[C@@H]5CC[C@]43C)[C@@H]12 | 14.6 µM | – | Ratio IC50 [2]: 10.5; Ratio IC50 (5'-nucleotidase [3]): 5.2; IC50 (MIA PaCa-2): > 100 µM; IC50 (MDA-MB-231): > 100 µM |
| C=C(C)[C@@H]1CC[C@]2(C(=O)O)CC[C@]3(C)[C@H](CC[C@@H]4[C@@]5(C)CC[C@H](O)[C@@](C)(CO)[C@@H]5CC[C@]43C)[C@@H]12 | – | > 100 µM | – |
| C=C(C)[C@@H]1CC[C@]2(C(=O)O)CC[C@]3(C)[C@H](CC[C@@H]4[C@@]5(C)CC[C@H](OC(=O)NCCO)C(C)(C)[C@@H]5CC[C@]43C)[C@@H]12 | > 100 µM | 37.2 µM | – |
| C=C(C)[C@@H]1CC[C@]2(C(=O)O)CC[C@]3(C)[C@H](CC[C@@H]4[C@@]5(C)CC[C@H](OC(=O)NC6CC6)C(C)(C)[C@@H]5CC[C@]43C)[C@@H]12 | > 100 µM | 81.4 µM | – |
| Nc1ncnc2c1ncn2[C@@H]1O[C@H](COP(=O)(O)CP(=O)(O)O)[C@@H](O)[C@H]1O | – | – | Activity (CD4+ve Th): Active |
| C=C(C)[C@@H]1CC[C@]2(C(=O)O)CC[C@]3(C)[C@H](CC[C@@H]4[C@@]5(C)CCC(=O)C(C)(C)[C@@H]5CC[C@]43C)[C@@H]12 [BETUNOLIC ACID] | – | 43.3 µM | – |
| C=C(C)[C@@H]1CC[C@]2(C(=O)O)CC[C@]3(C)[C@H](CC[C@@H]4[C@@]5(C)CC[C@H](OC(=O)N6CC(O)C6)C(C)(C)[C@@H]5CC[C@]43C)[C@@H]12 | > 100 µM | > 100 µM | – |
| C=C(C)[C@@H]1CC[C@]2(C(=O)O)CC[C@]3(C)[C@H](CC[C@@H]4[C@@]5(C)CC[C@H](OC(=O)N6CCCC6)C(C)(C)[C@@H]5CC[C@]43C)[C@@H]12 | > 100 µM | > 100 µM | – |
| C=C(C)[C@@H]1CC[C@]2(C(=O)O)CC[C@]3(C)[C@H](CC[C@@H]4[C@@]5(C)CC[C@H](OC(=O)NC(C)C)C(C)(C)[C@@H]5CC[C@]43C)[C@@H]12 | 59 µM | 5.69 µM | Ratio IC50 [2]: 10.4; Ratio IC50 (5'-nucleotidase [3]): 1.3; IC50 (MIA PaCa-2): 77.2 µM; IC50 (MDA-MB-231): > 100 µM |
| C=C(C)[C@@H]1CC[C@]2(C=O)CC[C@]3(C)[C@H](CC[C@@H]4[C@@]5(C)CC[C@H](O)C(C)(C)[C@@H]5CC[C@]43C)[C@@H]12 [BETULINALDEHYDE] | – | > 100 µM | – |
| C=C(C)[C@@H]1CC[C@]2(C(=O)O)CC[C@]3(C)[C@H](CC[C@@H]4[C@@]5(C)CC[C@H](OC(=O)NCCN6CCOCC6)C(C)(C)[C@@H]5CC[C@]43C)[C@@H]12 | > 100 µM | > 100 µM | – |
| C=C(C)[C@@H]1CC[C@]2(C(=O)O)CC[C@]3(C)[C@H](CC[C@@H]4[C@@]5(C)CC[C@H](O)C(C)(C)[C@@H]5CC[C@]43C)[C@@H]12 [BETULINIC ACID] | 68.8 µM | 7.28 µM | Activity (CD4+ve Th): Active; IC50 (MIA PaCa-2): 26.7 µM; IC50 (MDA-MB-231): 19.1 µM |
| C=C(C)[C@@H]1CC[C@]2(C(=O)O)CC[C@]3(C)[C@H](CC[C@@H]4[C@@]5(C)CC[C@H](OC(=O)N6CCN(C)CC6)C(C)(C)[C@@H]5CC[C@]43C)[C@@H]12 | > 100 µM | > 100 µM | – |
| C=C(C)[C@@H]1CC[C@]2(C(=O)O)CC[C@]3(C)[C@H](CC[C@@H]4[C@@]5(C)CC[C@H](OC(=O)N6CCNCC6)C(C)(C)[C@@H]5CC[C@]43C)[C@@H]12 | 33.6 µM | 16.8 µM | Ratio IC50 [2]: 2 |
| C=C(C)[C@@H]1CC[C@]2(C(=O)O)CC[C@]3(C)[C@H](CC[C@@H]4[C@@]5(C)CC[C@H](OC(=O)N6CCC(N)CC6)C(C)(C)[C@@H]5CC[C@]43C)[C@@H]12 | > 100 µM | > 100 µM | – |
